Each molecule was assayed on B16 melanoma cells (assay: Caspase-3 activity assay (EnzChek Caspase-3 Assay Kit), caspase-3 induction in tumor cells). Conditions: not given.
Format: cell-based, mouse
Procedure, shortened: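 B16 melanoma cells exposed to compounds for 24 h, lysed on ice 30 min, and lysate incubated with Z-DEVD-R110 substrate about 30 min at room temperature. Fluorescence read at ~496/520 nm against untreated-cell and no-enzyme controls; caspase-3 induction serves as surrogate for GrB activity from Sb9 inhibition.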
Also: test concentration or dose not given here.

Row | Structure (SMILES) | Ratio of caspase-3 activity to Formula (III)
1 | O=C1CN(C(=O)c2ccc3oc(-c4ccc(C(F)(F)F)cc4)nc3c2)CCN1 [4-({2-[4-(trifluoromethyl)phenyl]-1,3-benzoxazol-5-yl}carbonyl)-2-piperazinone] | 1.698
2 | O=C(c1ccc2oc(-c3cccc(F)c3)nc2c1)N1CCC(O)(c2ccccc2)CC1 [1-{[2-(3-fluorophenyl)-1,3-benzoxazol-5-yl]carbonyl}-4-phenyl-4-piperidinol] | 0.1773
3 | COc1cccc(-c2nc3ccc(C(=O)N(C)Cc4c(C)n[nH]c4C)cc3o2)c1 [N-[(3,5-dimethyl-1H-pyrazol-4-yl)methyl]-2-(3-methoxyphenyl)-N-methyl-1,3-benzoxazole-6-carboxamide] | 0.1324
4 | Cn1cc(CNC(=O)c2ccc3oc(-c4cccc(F)c4)nc3c2)cn1 [2-(3-fluorophenyl)-N-[(1-methyl-1H-pyrazol-4-yl)methyl]-1,3-benzoxazole-5-carboxamide] | 0.1005
5 | Cc1c[nH]c(CN(C)C(=O)c2ccc3oc(-c4ccc(C(F)(F)F)cc4)nc3c2)n1 [N-methyl-N-[(4-methyl-1H-imidazol-2-yl)methyl]-2-[4-(trifluoromethyl)phenyl]-1,3-benzoxazole-5-carboxamide] | 0.1327
6 | CCN(CC)C(=O)C1CCCN(C(=O)c2ccc3nc(-c4cccc(OC)c4)oc3c2)C1 (centres unmarked) [N,N-diethyl-1-{[2-(3-methoxyphenyl)-1,3-benzoxazol-6-yl]carbonyl}-3-piperidinecarboxamide] | 0.1463
7 | COc1cccc(-c2nc3ccc(C(=O)N(C)Cc4nnc(C)o4)cc3o2)c1 [2-(3-methoxyphenyl)-N-methyl-N-[(5-methyl-1,3,4-oxadiazol-2-yl)methyl]-1,3-benzoxazole-6-carboxamide] | 0.7091
8 | COc1cccc(-c2nc3ccc(C(=O)N4CCN(C5CCCC5)CC4)cc3o2)c1 [6-[(4-cyclopentyl-1-piperazinyl)carbonyl]-2-(3-methoxyphenyl)-1,3-benzoxazole] | 0.1582
9 | CCCOC1CCCN(C(=O)c2ccc3nc(-c4cccc(OC)c4)oc3c2)C1 (centres unmarked) [2-(3-methoxyphenyl)-6-[(3-propoxy-1-piperidinyl)carbonyl]-1,3-benzoxazole] | 0.1495
10 | COc1cccc(-c2nc3ccc(C(=O)N(CC4CC4)CC4CCCO4)cc3o2)c1 (centres unmarked) [N-(cyclopropylmethyl)-2-(3-methoxyphenyl)-N-(tetrahydro-2-furanylmethyl)-1,3-benzoxazole-6-carboxamide] | 0.1369
11 | O=C(c1ccc2nc(-c3ccccc3)oc2c1)N1CCC(O)CC1 [1-(2-phenyl-1,3-benzoxazole-6-carbonyl)piperidin-4-ol] | 1.327
12 | COc1cccc(-c2nc3ccc(C(=O)N(C)CC(O)c4ccccc4)cc3o2)c1 (centres unmarked) [N-(2-hydroxy-2-phenylethyl)-2-(3-methoxyphenyl)-N-methyl-1,3-benzoxazole-6-carboxamide] | 0.1589
13 | CCn1ccnc1CN(C)C(=O)c1ccc2nc(-c3cccc(OC)c3)oc2c1 [N-[(1-ethyl-1H-imidazol-2-yl)methyl]-2-(3-methoxyphenyl)-N-methyl-1,3-benzoxazole-6-carboxamide] | 1.071
14 | Cn1cc(CCNC(=O)c2ccc3oc(-c4cccc(F)c4)nc3c2)cn1 [2-(3-fluorophenyl)-N-[2-(1-methyl-1H-pyrazol-4-yl)ethyl]-1,3-benzoxazole-5-carboxamide] | 0.4475
15 | O=C(NCCc1cn[nH]c1)c1ccc2oc(-c3cccc(F)c3)nc2c1 [2-(3-fluorophenyl)-N-[2-(1H-pyrazol-4-yl)ethyl]-1,3-benzoxazole-5-carboxamide] | 0.4925
16 | COc1cccc(-c2nc3ccc(C(=O)NCC(C)(C)CO)cc3o2)c1 [N-(3-hydroxy-2,2-dimethylpropyl)-2-(3-methoxyphenyl)-1,3-benzoxazole-6-carboxamide] | 0.6716
17 | COc1cccc(-c2nc3ccc(C(=O)NCC(F)(F)F)cc3o2)c1 [2-(3-methoxyphenyl)-N-(2,2,2-trifluoroethyl)-1,3-benzoxazole-6-carboxamide] | 0.09526
18 | COc1cccc(-c2nc3ccc(C(=O)N4CCN(Cc5cccnc5)CC4)cc3o2)c1 [2-(3-methoxyphenyl)-6-{[4-(3-pyridinylmethyl)-1-piperazinyl]carbonyl}-1,3-benzoxazole] | 0.1411
19 | O=C(NCc1ccno1)c1ccc2oc(-c3cccc(F)c3)nc2c1 [2-(3-fluorophenyl)-N-(isoxazol-5-ylmethyl)-1,3-benzoxazole-5-carboxamide] | 0.09526
20 | COc1cccc(-c2nc3ccc(C(=O)N4CCS(=O)(=O)CC4)cc3o2)c1 [6-[(1,1-dioxidothiomorpholin-4-yl)carbonyl]-2-(3-methoxyphenyl)-1,3-benzoxazole] | 0.7081

Same assay, conditions: relative to compound of Formula (III)

Row | Structure (SMILES) | Caspase-3 induction, Normalized to Formula (III) (%)
21 | COCCCNC(=O)c1ccc2nc(-c3cc(Cl)cc(Cl)c3)oc2c1 [2-(3,5-dichlorophenyl)-N-(3-methoxypropyl)-1,3-benzoxazole-6-carboxamide] | −31.5901
22 | CCN(C)C(=O)c1cc(OC)c(O)c(OC)c1 [N-ethyl-4-hydroxy-3,5-dimethoxy-N-methylbenzamide] | −34.6356
23 | COc1cc(C(=O)NCCN(C)C)ccc1OCCC(C)C [N-[2-(dimethylamino)ethyl]-3-methoxy-4-(3-methylbutoxy)benzamide] | 6.8323
24 | CCOc1ccc(C(=O)NCc2ccccc2)cc1O [N-benzyl-4-ethoxy-3-hydroxybenzamide] | 19.0685
25 | COCCCNC(=O)c1ccc2nc(C3CCCO3)oc2c1 (centres unmarked) [N-(3-methoxypropyl)-2-(oxolan-2-yl)-1,3-benzoxazole-6-carboxamide] | −69.878
26 | CCN(C)C(=O)c1ccc2nc(C3CCCCC3)oc2c1 [2-cyclohexyl-N-ethyl-N-methyl-1,3-benzoxazole-6-carboxamide] | 1.1915
27 | COCCCNC(=O)c1cccc2nc(N(C)C)oc12 [2-(dimethylamino)-N-(3-methoxypropyl)-1,3-benzoxazole-7-carboxamide] | −39.581
28 | CCOc1ccc(C(=O)N2CCCC2)cc1O [2-ethoxy-5-(pyrrolidine-1-carbonyl)phenol] | −21.427
29 | COCCCNC(=O)c1cc(O)c(O)cc1C [4,5-dihydroxy-N-(3-methoxypropyl)-2-methylbenzamide] | −55.7377
30 | CN(C)c1nc2cccc(C(=O)NC3CCCC3)c2o1 [N-cyclopentyl-2-(dimethylamino)-1,3-benzoxazole-7-carboxamide] | −47.699
31 | O=C(NC1CCCC1)c1cc2c(cc1O)OCO2 [N-cyclopentyl-6-hydroxy-2H-1,3-benzodioxole-5-carboxamide] | −61.6444
32 | O=C(NCc1ccccc1)c1ccc2nc(-c3cc(Cl)cc(Cl)c3)oc2c1 [N-benzyl-2-(3,5-dichlorophenyl)-1,3-benzoxazole-6-carboxamide] | −36.0528
33 | CN(C)c1nc2c(C(=O)NC3CCCC3)cccc2o1 [N-cyclopentyl-2-(dimethylamino)-1,3-benzoxazole-4-carboxamide] | −20.9929
34 | CCN(C)C(=O)c1ccc(O)c(OC)c1 [N-ethyl-4-hydroxy-3-methoxy-N-methylbenzamide] | −33.3917
35 | COCCCNC(=O)c1ccc2nc(C3CC3)oc2c1 [2-cyclopropyl-N-(3-methoxypropyl)-1,3-benzoxazole-6-carboxamide] | −4.759
36 | O=C(NCc1ccccc1)c1ccc2nc(S)oc2c1 [N-benzyl-2-sulfanyl-1,3-benzoxazole-6-carboxamide] | −17.7286
37 | CCN(C)C(=O)c1ccc2ocnc2c1 [N-ethyl-N-methyl-1,3-benzoxazole-5-carboxamide] | −74.9828
38 | CCN(C)C(=O)c1ccc2oc(C)nc2c1 [N-ethyl-N,2-dimethyl-1,3-benzoxazole-5-carboxamide] | −65.6678
39 | Cc1cc(O)c(O)cc1C(=O)NC1CCCC1 [N-cyclopentyl-4,5-dihydroxy-2-methylbenzamide] | −66.5183
40 | O=C(Cc1ccc2ocnc2c1)N1CCCC1 [2-(1,3-benzoxazol-5-yl)-1-(pyrrolidin-1-yl)ethan-1-one] | 3.0541
41 | CCOc1ccc(C(=O)NCCN(C)C)cc1O [N-[2-(dimethylamino)ethyl]-4-ethoxy-3-hydroxybenzamide] | −38.5237
42 | O=C(c1ccc2nc(C(F)(F)F)oc2c1)N1CCCC1 [6-(pyrrolidine-1-carbonyl)-2-(trifluoromethyl)-1,3-benzoxazole] | −71.4007
43 | CCOc1ccc(C(=O)NCC2CCOC2)cc1O (centres unmarked) [4-ethoxy-3-hydroxy-N-[(oxolan-3-yl)methyl]benzamide] | −24.9053
44 | COCCCNC(=O)c1ccc2nc(C3CCCCC3)oc2c1 [2-cyclohexyl-N-(3-methoxypropyl)-1,3-benzoxazole-6-carboxamide] | −42.1813
45 | O=C(NC1CCCC1)c1ccc2nc(S)oc2c1 [N-cyclopentyl-2-sulfanyl-1,3-benzoxazole-6-carboxamide] | −81.3264
46 | COc1cc(C(=O)NCC2CCOCC2)ccc1O [4-hydroxy-3-methoxy-N-[(oxan-4-yl)methyl]benzamide] | −76.3077
47 | O=C(Cc1ccc2ocnc2c1)NC1CCCC1 [2-(1,3-benzoxazol-5-yl)-N-cyclopentylacetamide] | −4.02

— US20230255906A1, “Targeting Serpin B9 in Cancer” (The Brigham and Women`s Hospital, Inc., priority 2020, published 2023)
